Laboratory results published in ChEMBL document CHEMBL1909294, “Translating clinical findings into knowledge in drug safety evaluation--drug induced liver injury prediction system (DILIps)” (PLoS Comput Biol, 2011).

Legend:
[1] = tested on: Hepatotoxicity;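 on HepSE Combined Scores: combined hepatic side effect score as listed in the training data of the Drug Induced Liver Injury Prediction System (DILIps)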;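 on HepSE cholecystitis: Cholecystitis-related hepatic side effect score drawn from the DILIps (drug-induced liver injury prediction) training data set; call rule not given here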;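 on HepSE cholelithiasis: hepatic side effect score for cholelithiasis, drawn from the DILIps training data for predicting drug-induced liver injury; call rule not given here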;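 on HepSE cirrhosis: cirrhosis hepatic side effect score taken from the DILIps (drug-induced liver injury prediction) training set; call rule not given here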; on HepSE hepatic failure: call rule not given here;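 on HepSE hepatic necrosis: score of hepatic side effects for hepatic necrosis, drawn from the training data of DILIps, a prediction system for drug-induced liver injury; call rule not given here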; on HepSE liver disease: call rule not given here
[2] = tested on: Hepatotoxicity; remark: listed apart in the source;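 on HepSE Combined Scores: combined hepatic side effect score as listed in the training data of the Drug Induced Liver Injury Prediction System (DILIps)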;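 on HepSE cholecystitis: Cholecystitis-related hepatic side effect score drawn from the DILIps (drug-induced liver injury prediction) training data set; call rule not given here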;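 on HepSE cholelithiasis: hepatic side effect score for cholelithiasis, drawn from the DILIps training data for predicting drug-induced liver injury; call rule not given here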;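 on HepSE cirrhosis: cirrhosis hepatic side effect score taken from the DILIps (drug-induced liver injury prediction) training set; call rule not given here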; on HepSE hepatic failure: call rule not given here;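 on HepSE hepatic necrosis: score of hepatic side effects for hepatic necrosis, drawn from the training data of DILIps, a prediction system for drug-induced liver injury; call rule not given here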; on HepSE liver disease: call rule not given here
[3] = tested on: Hepatotoxicity; remark: listed apart in the source;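 on HepSE Combined Scores: combined hepatic side effect score as listed in the training data of the Drug Induced Liver Injury Prediction System (DILIps)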;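 on HepSE cholecystitis: Cholecystitis-related hepatic side effect score drawn from the DILIps (drug-induced liver injury prediction) training data set; call rule not given here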;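 on HepSE cholelithiasis: hepatic side effect score for cholelithiasis, drawn from the DILIps training data for predicting drug-induced liver injury; call rule not given here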;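 on HepSE cirrhosis: cirrhosis hepatic side effect score taken from the DILIps (drug-induced liver injury prediction) training set; call rule not given here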; on HepSE hepatic failure: call rule not given here;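 on HepSE hepatic necrosis: score of hepatic side effects for hepatic necrosis, drawn from the training data of DILIps, a prediction system for drug-induced liver injury; call rule not given here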; on HepSE liver disease: call rule not given here
[4] = tested on: Hepatotoxicity; remark: listed apart in the source;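 on HepSE Combined Scores: combined hepatic side effect score as listed in the training data of the Drug Induced Liver Injury Prediction System (DILIps)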;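 on HepSE cholecystitis: Cholecystitis-related hepatic side effect score drawn from the DILIps (drug-induced liver injury prediction) training data set; call rule not given here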;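 on HepSE cholelithiasis: hepatic side effect score for cholelithiasis, drawn from the DILIps training data for predicting drug-induced liver injury; call rule not given here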;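 on HepSE cirrhosis: cirrhosis hepatic side effect score taken from the DILIps (drug-induced liver injury prediction) training set; call rule not given here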; on HepSE hepatic failure: call rule not given here;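 on HepSE hepatic necrosis: score of hepatic side effects for hepatic necrosis, drawn from the training data of DILIps, a prediction system for drug-induced liver injury; call rule not given here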; on HepSE liver disease: call rule not given here
[5] = tested on: Hepatotoxicity; remark: listed apart in the source; on HepSE hepatic failure: call rule not given here; on HepSE liver disease: call rule not given here
[6] = tested on: Hepatotoxicity; remark: listed apart in the source; on HepSE hepatic failure: call rule not given here; on HepSE liver disease: call rule not given here
[7] = tested on: Hepatotoxicity; remark: listed apart in the source
[8] = tested on: Hepatotoxicity; remark: listed apart in the source
[9] = tested on: Hepatotoxicity; remark: listed apart in the source
[10] = tested on: Hepatotoxicity; remark: listed apart in the source
[11] = tested on: Hepatotoxicity; remark: listed apart in the source
[12] = tested on: Hepatotoxicity; remark: listed apart in the source
[13] = tested on: Hepatotoxicity; remark: listed apart in the source
[14] = tested on: Hepatotoxicity; remark: listed apart in the source

| Compound | HepSE_cholecystitis [1] | HepSE_cholelithiasis [2] | HepSE_hepatic necrosis [3] | HepSE_liver disease [4] | HepSE_hepatic failure [5] | HepSE_Combined Scores [6] | HepSE_cirrhosis [7] | HepSE_liver function tests abnormal [8] | HepSE_bilirubinemia [9] | HepSE_jaundice [10] | HepSE_hepatomegaly [11] | HepSE_hepatitis [12] | HepSE_liver fatty [13] | HepSE_elevated liver function tests [14] | also measured |
| --- | --- | --- | --- | --- | --- | --- | --- | --- | --- | --- | --- | --- | --- | --- | --- |
| CCCN1CCCC[C@H]1C(=O)Nc1c(C)cccc1C [ROPIVACAINE] | 0 | 0 | 0 | 0 | 0 | 1 | 0 | 0 | 0 | 1 | 0 | 0 | 0 | 0 | – |
| CN(C)CCCN1c2ccccc2Sc2ccc(Cl)cc21 [CHLORPROMAZINE] | 0 | 0 | 0 | 1 | 0 | 3 | 1 | 0 | 0 | 1 | 0 | 0 | 0 | 0 | – |
| NS(=O)(=O)Cc1noc2ccccc12 [ZONISAMIDE] | 1 | 1 | 0 | 0 | 0 | 3 | 0 | 0 | 0 | 1 | 0 | 0 | 0 | 0 | – |
| O=C(NCC(O)CO)c1c(I)c(C(=O)NCC(O)CO)c(I)c(N(CCO)C(=O)CO)c1I (configuration not stated) [IOVERSOL] | 0 | 0 | 0 | 0 | 0 | 0 | 0 | 0 | 0 | 0 | 0 | 0 | 0 | 0 | – |
| O=NN(CCCl)C(=O)NCCCl [CARMUSTINE] | 0 | 0 | 0 | 0 | 0 | 1 | 0 | 1 | 0 | 0 | 0 | 0 | 0 | 0 | – |
| CCN1C(=O)NC(c2ccccc2)C1=O (configuration not stated) [ETHOTOIN] | 0 | 0 | 0 | 0 | 0 | 0 | 0 | 0 | 0 | 0 | 0 | 0 | 0 | 0 | – |
| [Mg] | 0 | 0 | 0 | 0 | 0 | 0 | 0 | 0 | 0 | 0 | 0 | 0 | 0 | 0 | – |
| CC[C@@H](CO)NC(=O)[C@@H]1C=C2c3cccc4[nH]cc(c34)C[C@H]2N(C)C1 [METHYLERGONOVINE] | 0 | 0 | 0 | 0 | 0 | 0 | 0 | 0 | 0 | 0 | 0 | 0 | 0 | 0 | – |
| Cc1c(O)cccc1C(=O)N[C@@H](CSc1ccccc1)[C@H](O)CN1C[C@H]2CCCC[C@H]2C[C@H]1C(=O)NC(C)(C)C | 0 | 0 | 0 | 0 | 0 | 4 | 0 | 1 | 1 | 1 | 0 | 1 | 0 | 0 | – |
| COc1ccc(CC2c3cc(OC)c(OC)cc3CC[N+]2(C)CCC(=O)OCCCCCOC(=O)CC[N+]2(C)CCc3cc(OC)c(OC)cc3C2Cc2ccc(OC)c(OC)c2)cc1OC (configuration not stated) | 0 | 0 | 0 | 0 | 0 | 0 | 0 | 0 | 0 | 0 | 0 | 0 | 0 | 0 | – |
| C#Cc1cccc(Nc2ncnc3cc(OCCOC)c(OCCOC)cc23)c1 [ERLOTINIB] | 0 | 0 | 0 | 1 | 1 | 2 | 0 | 0 | 0 | 0 | 0 | 0 | 0 | 0 | – |
| CC(C)c1cccc(C(C)C)c1O [PROPOFOL] | – | – | – | – | – | – | – | – | – | – | – | – | – | – | HepSE_cholecystitis ([1]; Liver): 0; HepSE_cholelithiasis ([2]; Liver): 0; HepSE_hepatic necrosis ([3]; Liver): 0; HepSE_liver disease ([4]; Liver): 0; HepSE_hepatic failure ([5]; Liver): 0; HepSE_Combined Scores ([6]; Liver): 1; HepSE_cirrhosis ([7]; Liver): 0; HepSE_liver function tests abnormal ([8]; Liver): 0; HepSE_bilirubinemia ([9]; Liver): 0; HepSE_jaundice ([10]; Liver): 0; HepSE_hepatomegaly ([11]; Liver): 1; HepSE_hepatitis ([12]; Liver): 0; HepSE_liver fatty ([13]; Liver): 0; HepSE_elevated liver function tests ([14]; Liver): 0 |
| OXALIPLATIN | 0 | 0 | 0 | 1 | 0 | 2 | 0 | 0 | 1 | 0 | 0 | 0 | 0 | 0 | – |
